24 molecules from patent US20090023718A1 (Aton Pharma, Inc., priority 2003, published 2009) can be followed below.

A word on the IC50: it is the point on the concentration scale where inhibition reaches its midpoint.

One experiment deals with T1, histone deacetylase, subtype 1 (HDAC1) (Homo sapiens, UniProt Q13547).
T1 construct: Flag; made in house
T1 sequence (Q13547 whole entry): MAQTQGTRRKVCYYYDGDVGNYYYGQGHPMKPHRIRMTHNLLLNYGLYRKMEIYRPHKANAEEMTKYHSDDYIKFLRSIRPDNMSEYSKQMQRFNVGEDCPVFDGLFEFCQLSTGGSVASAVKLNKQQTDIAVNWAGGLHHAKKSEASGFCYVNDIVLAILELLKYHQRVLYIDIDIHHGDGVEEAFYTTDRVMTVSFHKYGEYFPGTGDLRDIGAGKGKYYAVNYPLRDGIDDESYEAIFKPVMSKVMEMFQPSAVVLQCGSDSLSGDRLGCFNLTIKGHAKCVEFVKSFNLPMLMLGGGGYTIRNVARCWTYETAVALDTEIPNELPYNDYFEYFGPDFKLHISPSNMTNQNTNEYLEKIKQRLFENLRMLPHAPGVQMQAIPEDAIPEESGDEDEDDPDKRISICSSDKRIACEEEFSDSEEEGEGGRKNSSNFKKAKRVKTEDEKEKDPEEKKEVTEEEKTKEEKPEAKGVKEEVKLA
The experiment is described as follows: HDAC1-Flag assay (in vitro fluorescent deacetylation assay). The settings on record: Table 2, compounds of formula III; epitope-tagged human HDAC1 complex, substrate at Km; mean ± spread (N); read-out: HDAC Inhibition (IC50) nm. The format is biochemical. The procedure:
Novel compounds were tested for their ability to inhibit histone deacetylase, subtype 1 (HDAC1) using an in vitro deacetylation assay. The enzyme source for this assay was an epitope-tagged human HDAC1 complex immuno-purified from stably expressing mammalian cells. The substrate consisted of a commercial product containing an acetylated lysine side chain (BIOMOL Research Laboratories, Inc., Plymouth Meeting, Pa.). Upon deacetylation of the substrate by incubation with the purified HDAC1 complex, a fluorophore is produced that is directly proportional to the level of deacetylation.
Turning to `O=C(CCCCN(CC(=O)NCc1ccccc1)CC(=O)NCc1ccccc1)NO` [Compound 55, 5-[Bis-(benzylcarbamoyl-methyl)-amino]-pentanoic acid hydroxyamide], the IC50 stood at 907 ± 60.8 nM.
For the molecule `O=C(CCCCCN(CC(=O)N1CCCCC1)CC(=O)N1CCCCC1)NO` [Compound 56, 6-[Bis-(2-oxo-2-piperidin-1-yl-ethyl)-amino]-hexanoic acid hydroxyamide], the IC50 was 2080 ± 383 nM.
Regarding `O=C(CCCCCN(CC(=O)N1CCOCC1)CC(=O)N1CCOCC1)NO` [Compound 57, 6-[Bis-(2-morpholin-4-yl-2-oxo-ethyl)-amino]-hexanoic acid hydroxyamide], the IC50 was 2280 ± 889 nM.

Staying with this experiment, now noted: Table 3, compounds of formula IV; epitope-tagged human HDAC1 complex, substrate at Km; mean ± spread (N); read-out: HDAC Inhibition (IC50) nm.
Consider `O=C(CCCCC(=O)N(Cc1ccccc1)Cc1ccccc1)NO` [Compound 58], for which the IC50 came to 899 ± 243 nM.
The same measure, in the same setting: with `O=C(CCCCC(=O)N(CCc1ccccc1)Cc1ccccc1)NO` [Compound 59] the figure was 2590 ± 807 nM; with `O=C(CCCCCCC(=O)N(CCc1c[nH]c2ccccc12)Cc1ccc(Br)cc1)NO` [Compound 60], 387 ± 80.6 nM.
For the molecule `O=C(CCCCCC(=O)N(CCc1c[nH]c2ccccc12)Cc1ccc(Br)cc1)NO` [Compound 61], the IC50 was found to be 162 ± 88.3 nM.
As for `O=C(CCCCCCC(=O)N(Cc1ccccc1)Cc1ccccc1)NO` [Compound 62], the IC50 was 462 ± 51.6 nM.
Regarding `O=C(CCCCCCC(=O)N(CCc1ccccc1)Cc1ccccc1)NO` [Compound 63], the IC50 was found to be 591 ± 46.6 nM.
The same measure, in the same setting: with `O=C(CCCCCCCCC(=O)N(CCc1ccccc1)Cc1ccccc1)NO` [Compound 64] the figure was 434 ± 2.8 nM; with `O=C(CCCCCCC(=O)N1CCN(C(=O)OCc2ccccc2)CC1)NO` [Compound 65], 301 ± 21.2 nM.
As to `O=C(CCC(=O)N1CCN(c2ccccc2)CC1)NO` [Compound 66], the IC50 stood at 44300 nM.
Take `O=C(CCC(=O)N1CCN(c2ccc(Cl)cc2)CC1)NO` [Compound 67]: the IC50 worked out at 16200 nM.
As to `O=C(CCC(=O)N1CCN(c2ccccc2Cl)CC1)NO` [Compound 68], the half-maximal inhibitory concentration (IC50) was 73300 nM.
In the case of `O=C(CCC(=O)N1CCN(c2cccc(Cl)c2)CC1)NO` [Compound 69], the IC50 was determined as 13000 nM.
Still for that read-out and setting: the value for `CC(=O)c1ccc(N2CCN(C(=O)CCC(=O)NO)CC2)cc1` [Compound 70] was 24000 nM; that for `O=C(CCCC(=O)N1CCN(c2ccccc2)CC1)NO` [Compound 71, 5-Oxo-5-(4-phenyl-piperazin-1-yl)-pentanoic acid hydroxyamide] was 1220 ± 31.1 nM.
The same measure, in the same setting: the value for `O=C(CCCC(=O)N1CCN(c2cccc(Cl)c2)CC1)NO` [Compound 72, 5-[4-(3-Chloro-phenyl)-piperazin-1-yl]-5-oxo-pentanoic acid hydroxyamide] was 474 ± 36 nM.
Still for that read-out and setting: the value for `O=C(CCCC(=O)N1CCN(c2ccc(Cl)cc2)CC1)NO` [Compound 73, 5-[4-(4-Chloro-phenyl)-piperazin-1-yl]-5-oxo-pentanoic acid hydroxyamide] was 988 ± 93.3 nM.
In the case of `O=C(CCCCC(=O)N1CCN(c2ccccc2)CC1)NO` [Compound 74, 6-Oxo-6-(4-phenyl-piperazin-1-yl)-hexanoic acid hydroxyamide], the concentration for half-maximal inhibition (IC50) was found to be 1350 ± 106 nM.
For `O=C(CCCCC(=O)N1CCN(c2cccc(Cl)c2)CC1)NO` [Compound 75, 6-[4-(3-Chloro-phenyl)-piperazin-1-yl]-6-oxo-hexanoic acid hydroxyamide], the IC50 is 621 ± 94 nM.
Consider `O=C(CCCCC(=O)N1CCN(c2ccc(Cl)cc2)CC1)NO` [Compound 76, 6-[4-(4-Chloro-phenyl)-piperazin-1-yl]-6-oxo-hexanoic acid hydroxyamide], for which the IC50 was 475 ± 9.1 nM.
On the same count and under the same terms, with `O=C(CCCCCCC(=O)N1CCN(c2cccc(Cl)c2)CC1)NO` [Compound 77, 8-[4-(3-Chloro-phenyl)-piperazin-1-yl]-8-oxo-octanoic acid hydroxyamide] the figure was 39 ± 2.8 nM; with `O=C(CCCCCCCCC(=O)N1CCN(c2ccc(Cl)cc2)CC1)NO` [Compound 79, 10-[4-(4-Chloro-phenyl)-piperazin-1-yl]-10-oxo-decanoic acid hydroxyamide], 169 ± 30.4 nM.
